Measured values reported in PMC9115719, “Spatial Expression Analysis of Odorant Binding Proteins in Both Sexes of the Aphid Parasitoid Aphidius gifuensis and Their Ligand Binding Properties” (Frontiers in Physiology, 2022).
Values joined by “and” are separate entries in the source; they are usually repeats but may differ in a detail not shown here. Equal values may be shown once. Read-outs that look alike come from different tables or passages of the source.

Legend:
AgifOBP7 [1] = molecular target: T1, AgifOBP7 (Aphidius gifuensis, UniProt A0A3S9LWE5); assay: Fluorescence competitive binding assay (1-NPN displacement) with recombinant AgifOBP7; settings: for binding to AgifOBP7 in words: fluorescence competitive binding assay
T1 sequence (A0A3S9LWE5 entry or part of it): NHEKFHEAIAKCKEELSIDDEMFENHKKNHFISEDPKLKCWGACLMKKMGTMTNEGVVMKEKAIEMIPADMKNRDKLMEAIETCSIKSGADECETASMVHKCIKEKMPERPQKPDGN
Description: (§1) Fluorescence intensity was recorded in a right angle configuration on a Lengguang 970CRT spectrofluorimeter (Shanghai Jingmi, China) at room temperature using a 1 cm light path fluorimeter quartz cuvette. A slit width of 10 nm was selected for both excitation and emission. The measured fluorescence intensities were corrected for both blank signals due to protein emission and scattered excitation light. The spectral data were processed using the software 970CRT 2.0l. Fluorescence binding experiments were conducted in […] Tris-HCl buffer, pH 7.4, at room temperature. The binding affinity for N-phenyl-1-naphthylamine (1-NPN) was determined by adding aliquots of a 1 mM stock solution of 1-NPN dissolved in spectrophotometric grade methanol into a 2 μM protein sample. The fluorescence of 1-NPN was excited at 337 nm, and emission was recorded between 350 and 500 nm. Spectra were recorded with a high-speed scan. All ligands used in competitive experiments were dissolved in spectrophotometric grade methanol. In competition assays, aliquots of the competing ligands were added into a 2 μM protein solution in the presence of a given concentration of 1-NPN. To estimate the binding affinities of each AgifOBP for a variety of different ligands, we monitored the decrease in 1-NPN fluorescence due to the ability of different odorants to displace 1-NPN and determined the Ki value for each compound. To determine the dissociation constants, the intensity values corresponding to the maximum fluorescence emissions were plotted against the cumulative 1-NPN concentration. The amount of bound ligand was calculated from the fluorescence intensity values by assuming that the protein was 100% active, with a stoichiometry of 1:1 protein: ligand at saturation. The curves were linearized using Scatchard plots. The value of K1-NPN was estimated on a direct plot by nonlinear regression with an equation corresponding to a single binding site using Prism 7 (GraphPad Software, Inc., United States), and the IC50 was defined as the concentration of a competitor that caused a 50% reduction in fluorescence intensity. The dissociation constants of the inhibitors (Ki) were calculated according to the formula Ki = [IC50]/(1+[1-NPN]/K1-NPN), in which [1-NPN] represents the free 1-NPN concentration and K1-NPN represents the dissociation constant for AgifOBPs/1-NPN ([Ban et al., 2003]; [Zhong et al., 2012]; [Sun et al., 2016]; [Fan et al., 2017]; [Qin et al., 2020]; [Wang et al., 2021b]). All fluorescence competitive binding assays were performed in three independent replicates, and Ki dates are present as means ± SD.
(§2) FIGURE 5 Expression and binding properties of AgifOBP7 and AgifOBP9 with candidate ligands. (A) Expression and purification of AgifOBP7, (B) Expression and purification of AgifOBP9. Line M: molecular weight PR 1910 (11–180 KDa) Marker, 11, 17, 25, 35, 48, 63, 75, 100, 135, 180 KDa; IN: Induced pET-28a (+)/AgifOBP7/9; Super: pET-28a (+)/AgifOBP7/9 Supernatant; IB: pET-28a (+)/AgifOBP7/9 Inclusion body; Pur: Purified pET-28a (+)/AgifOBP7/9 without His-tag. (C,D) Binding curves of AgifOBP7 and AgifOBP9 with N-phenyl-1-naphthylamine (1-NPN) in 50 mM Tris-HCl buffer (pH 7.4). (E,F) Competitive binding curves of AgifOBP7 and AgifOBP9 to components of aphid alarm pheromones ((E)-beta-farnesene, (-)-α-pinene, (-)-β-pinene, (+)-limonene, (E)-beta-farnesene derivative (CAU-II-11); aphid sexual pheromone (4aSR 7SR 7aRS)-nepetalactone, the volatiles of wheat green leaf (cis-3-hexen-1-ol) and aphid induced plant main volatiles (methyl salicylate, 6-methyl-5-hepten-2-one). A mixture of the recombinant protein and N-phenyl-1-naphthylamine (1-NPN) in 50 mM Tris-HCl buffer (pH 7.4) at the concentration of 2 μM was titrated with 1 mM solutions of each competing ligand to a final concentration range of 2–16 μM. Fluorescence values are presented as percent of the values in the absence of competitor. Date are the means ± SD of three independent experiments.

AgifOBP9 [2] = molecular target: T2, AgifOBP9 (Aphidius gifuensis, UniProt A0A3Q9EL79, L121S); assay: Fluorescence competitive binding assay (1-NPN displacement) with recombinant AgifOBP9; settings: for Ki: Tris-HCl pH 7.4, Ki = [IC50]/(1+[1-NPN]/K1-NPN), means ± SD, three replicates
T2 sequence (A0A3Q9EL79 entry or part of it L121S): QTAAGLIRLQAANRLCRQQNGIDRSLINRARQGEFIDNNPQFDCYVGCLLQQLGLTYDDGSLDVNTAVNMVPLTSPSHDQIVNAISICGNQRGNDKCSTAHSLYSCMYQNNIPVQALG
Description: as §1, §2

AgifOBP9 [3] = molecular target: T2, AgifOBP9; assay: Binding of fluorescent probe 1-NPN to AgifOBP9; settings: 2 μM protein, 50 mM Tris-HCl pH 7.4; read-out: dissociation constant of AgifOBP9/1-NPN complex
Description: (§3) Fluorescence intensity was recorded in a right angle configuration on a Lengguang 970CRT spectrofluorimeter (Shanghai Jingmi, China) at room temperature using a 1 cm light path fluorimeter quartz cuvette. A slit width of 10 nm was selected for both excitation and emission. The measured fluorescence intensities were corrected for both blank signals due to protein emission and scattered excitation light. The spectral data were processed using the software 970CRT 2.0l. Fluorescence binding experiments were conducted in […] Tris-HCl buffer, pH 7.4, at room temperature. […] The fluorescence of 1-NPN was excited at 337 nm, and emission was recorded between 350 and 500 nm. Spectra were recorded with a high-speed scan. […] To estimate the binding affinities of each AgifOBP for a variety of different ligands, we monitored the decrease in 1-NPN fluorescence due to the ability of different odorants to displace 1-NPN and determined the Ki value for each compound. To determine the dissociation constants, the intensity values corresponding to the maximum fluorescence emissions were plotted against the cumulative 1-NPN concentration. The amount of bound ligand was calculated from the fluorescence intensity values by assuming that the protein was 100% active, with a stoichiometry of 1:1 protein: ligand at saturation. […]

AgifOBP7 [4] = molecular target: T1, AgifOBP7; assay: Binding of fluorescent probe 1-NPN to AgifOBP7; settings: 2 μM protein, 50 mM Tris-HCl pH 7.4; read-out: dissociation constant of AgifOBP7/1-NPN complex
Description: as §3

[5] = displacement of 1-NPN, 2 μM protein, Tris-HCl pH 7.4, room temperature, read-out: OBP7 IC50
[6] = displacement of 1-NPN, 2 μM protein, Tris-HCl pH 7.4, Ki = [IC50]/(1+[1-NPN]/K1-NPN), means ± SD, three replicates, read-out: OBP7 Ki
[7] = displacement of 1-NPN, 2 μM protein, Tris-HCl pH 7.4, room temperature, read-out: OBP9 IC50
[8] = displacement of 1-NPN, 2 μM protein, read-out: OBP9 Ki
[9] = OBP9 Ki, displacement of 1-NPN, 2 μM protein

## C=C(C)C1CC=C(C)CC1 (single isomer, unassigned; (+)) [(+)-Limonene]
AgifOBP7 [1]; [5]
  IC50: > 30 µM
AgifOBP7 [1]; [6]
  Ki: > 30 µM
AgifOBP7 [1]
  binding to AgifOBP7 in words: not much
AgifOBP9 [2]; [7]
  IC50: 12.8 ± 0.25 µM
AgifOBP9 [2]; displacement of 1-NPN, 2 μM protein, listed as (+)-limonene, read-out: OBP9 Ki
  Ki: < 10 µM
AgifOBP9 [2]; [8]
  Ki: 3.32 ± 0.06 µM

## COc1cccc(C(=O)OC/C=C(\C)CCC=C(C)C)c1O [CAU-II-11, (E)-3,7-dimethylocta-2,6-dien-1-yl-2-hydroxy-3-methoxybenzoate]
AgifOBP7 [1]
  IC50: 18.6 ± 1.73 µM
  Ki: 8.5 ± 0.73 µM
AgifOBP9 [2]
  IC50: 4.15 ± 0.33 µM
AgifOBP9 [2]; [9]
  Ki: 1.07 ± 0.08 µM

## C=CC(=C)CC/C=C(\C)CCC=C(C)C [(E)-β-Farnesene]
AgifOBP7 [1]; [5]
  IC50: > 30 µM
AgifOBP7 [1]; [6]
  Ki: 20.3 ± 1.99 µM
AgifOBP9 [2]; [7]
  IC50: 17.8 ± 1.69 µM
AgifOBP9 [2]; displacement of 1-NPN, 2 μM protein, listed as EBF, read-out: OBP9 Ki
  Ki: < 10 µM
AgifOBP9 [2]; [8]
  Ki: 4.6 ± 0.43 µM

## CC1=CCC2CC1C2(C)C (stereo not drawn) [(-)-α-Pinene]
AgifOBP7 [1]; [5]
  IC50: > 30 µM
AgifOBP7 [1]; [6]
  Ki: > 30 µM
AgifOBP7 [1]
  binding to AgifOBP7 in words: not much
AgifOBP9 [2]; [7]
  IC50: 24.1 ± 3.42 µM
AgifOBP9 [2]; displacement of 1-NPN, 2 μM protein, listed as (-)-α-pinene, read-out: OBP9 Ki
  Ki: < 10 µM
AgifOBP9 [2]; [8]
  Ki: 6.22 ± 0.88 µM

## CC(=O)CCC=C(C)C [6-Methyl-5-hepten-2-one]
AgifOBP7 [1]
  IC50: > 30 µM
  Ki: > 30 µM
  binding to AgifOBP7 in words: not much
AgifOBP9 [2]
  IC50: 22.3 ± 3.38 µM
AgifOBP9 [2]; [9]
  Ki: < 10 µM and 5.76 µM

## C=C1CCC2CC1C2(C)C (stereo not drawn) [(-)-β-Pinene]
AgifOBP7 [1]; [5]
  IC50: > 30 µM
AgifOBP7 [1]; [6]
  Ki: > 30 µM
AgifOBP7 [1]
  binding to AgifOBP7 in words: not much
AgifOBP9 [2]; [7]
  IC50: 11.9 ± 1.27 µM
AgifOBP9 [2]; displacement of 1-NPN, 2 μM protein, listed as (-)-β-pinene, read-out: OBP9 Ki
  Ki: < 10 µM
AgifOBP9 [2]; [8]
  Ki: 3.06 ± 0.33 µM

## CC1=COC(=O)[C@H]2[C@@H]1CC[C@@H]2C [(4aSR 7SR 7aRS)-Nepetalactone]
AgifOBP7 [1]; [5]
  IC50: > 30 µM
AgifOBP7 [1]; [6]
  Ki: 16.1 ± 3.49 µM
AgifOBP9 [2]; [7]
  IC50: 9.03 ± 0.31 µM
AgifOBP9 [2]; displacement of 1-NPN, 2 μM protein, listed as (4aSR 7SR 7aRS)-nepetalactone, read-out: OBP9 Ki
  Ki: < 10 µM
AgifOBP9 [2]; [8]
  Ki: 2.33 ± 0.08 µM

## CC/C=C\CCO [cis-3-Hexenol]
AgifOBP7 [1]
  IC50: > 30 µM
  Ki: > 30 µM
  binding to AgifOBP7 in words: not much
AgifOBP9 [2]
  IC50: 17 ± 0.33 µM
AgifOBP9 [2]; [9]
  Ki: < 10 µM and 4.39 µM

## COC(=O)c1ccccc1O [Methyl salicylate]
AgifOBP7 [1]
  IC50: > 30 µM
  Ki: > 30 µM
  binding to AgifOBP7 in words: not much
AgifOBP9 [2]
  IC50: 13.3 ± 2.99 µM
AgifOBP9 [2]; [9]
  Ki: < 10 µM and 3.43 µM

## c1ccc(Nc2cccc3ccccc23)cc1 [1-NPN, N-phenyl-1-naphthylamine]
AgifOBP9 [3]
  Kd: 0.69 ± 0.24 µM
AgifOBP7 [4]
  Kd: 1.69 ± 0.27 µM
